Measurements published in patent publication US9060949B2, “Menthyl carbamate compounds as skin and/or hair lightening actives” (SYMRISE AG, priority 2010, dated 2015).

The molecules below were run on B16V mouse melanoma cells (assay: Depigmenting effect on melanoma cell cultures (inhibition of pigmentation)). Conditions: 96 h, read-out: IC 50 (concentration at which pigmentation is inhibited by 50%).
Assay type: cell-based
Experimental: B16V mouse melanoma cells are disseminated in a 96-well microtitre plate in a concentration of 5×10^3 cells/well. After cultivation for 24 h at 37° C. and 5% CO2 in RPMI medium, enriched with 10% foetal calf serum, various concentrations of the test substances and 0.3 mM tyrosine and 10 nM α-MSH (α-melanocyte stimulating hormone) are added and incubated for a further 96 h. The maximum concentration of the test substances used corresponds to 0.1 times the value of the IC20 value of the cytotoxicity assay. Standards are incubated with kojic acid in concentrations of 0.01 mM, 0.1 mM and 1 mM in addition to tyrosine and α-MSH. Only tyrosine and α-MSH are added to the controls. After incubation, sodium lauryl sulfate and sodium hydroxide solution (final concentrations: 1 mM and 1 M respectively) are added to the culture medium and the absorption (A) is measured after 3 h at 400 nm.
The inhibition of pigmentation in the presence of the test compounds or kojic acid was calculated using the following equation: Inhibition of pigmentation(%)=100−[(Atest compound/Acontrol)×100] wherein Atest compound=absorption of the wells with test substance and with cells Acontrol=absorption of the wells without test substance, but with cells
From the inhibition of pigmentation (%) in a series of dilutions of test compounds, the IC50 for each test compound is calculated. This is the concentration of a test compound at which pigmentation is inhibited by 50%.

In the case of `CC(C)[C@@H]1CC[C@@H](C)C[C@H]1OC(=O)NCc1ccc2c(c1)OCO2` [BIO1571, Benzo[1,3]dioxol-5-ylmethyl-carbamic acid (1R,2S,5R)-2-isopropyl-5-methyl-cyclohexyl ester], the IC50 is reported as 5.5 µM.

Same assay, conditions: B16V cells, 0.3 mM tyrosine and 10 nM α-MSH, 96 h incubation, absorption at 400 nm, read-out: IC 50 (concentration at which pigmentation is inhibited by 50%)

`CCNC(=O)O[C@@H]1C[C@H](C)CC[C@H]1C(C)C` [BIO1151, Ethyl-carbamic acid (1R,2S,5R)-2-isopropyl-5-methyl-cyclohexyl ester] and `CCNC(=O)O[C@H]1C[C@@H](C)CC[C@@H]1C(C)C` [BIO1378, Ethyl-carbamic acid (1S,2R,5S)-2-isopropyl-5-methyl-cyclohexyl ester] are within 1.5-fold of each other in IC50: 40.9 µM for the first, 29.3 µM for the second.

Compared with `COCCCNC(=O)O[C@@H]1C[C@H](C)CC[C@H]1C(C)C` [BIO1155, (3-Methoxy-propyl)-carbamic acid (1R,2S,5R)-2-isopropyl-5-methyl-cyclohexyl ester], `COCCCNC(=O)O[C@H]1C[C@@H](C)CC[C@@H]1C(C)C` [BIO1339, (3-Methoxy-propyl)-carbamic acid (1S,2R,5S)-2-isopropyl-5-methyl-cyclohexyl ester] is 2.4-fold higher in IC50: 22.1 µM for the first, 53.2 µM for the second. The first is the more potent here.

First: CC(C)CNC(=O)O[C@@H]1C[C@H](C)CC[C@H]1C(C)C [BIO1159, Isobutyl-carbamic acid (1R,2S,5R)-2-isopropyl-5-methyl-cyclohexyl ester]
Second: CCNC(=O)O[C@H]1C[C@H](C)CC[C@H]1C(C)C [BIO1461, Ethyl-carbamic acid (1S,2S,5R)-2-isopropyl-5-methyl-cyclohexyl ester]
The IC50 of the first is 3.5-fold higher: 100 µM for the first, 28.7 µM for the second. The second is the more potent here.

Compared with `CNC(=O)O[C@@H]1C[C@H](C)CC[C@H]1C(C)C` [BIO1185, Methyl-carbamic acid (1R,2S,5R)-2-isopropyl-5-methyl-cyclohexyl ester], `CNC(=O)O[C@H]1C[C@@H](C)CC[C@@H]1C(C)C` [BIO1301, Methyl-carbamic acid (1S,2R,5S)-2-isopropyl-5-methyl-cyclohexyl ester] is 1.7-fold lower in IC50: 109 µM for the first, 63.9 µM for the second. The second is the more potent here.

Going from `CC(C)[C@@H]1CC[C@@H](C)C[C@H]1OC(=O)NC1CCCCC1` [BIO1266, Cyclohexyl-carbamic acid (1R,2S,5R)-2-isopropyl-5-methyl-cyclohexyl ester] to `CC(C)[C@@H]1CC[C@@H](C)C[C@H]1OC(=O)NCC1CCCCC1` [BIO1699, Cyclohexylmethyl-carbamic acid (1R,2S,5R)-2-isopropyl-5-methyl-cyclohexyl ester], the IC50 falls from 18.8 µM to 1.4 µM (13-fold).

First: CCCCNC(=O)O[C@@H]1C[C@H](C)CC[C@H]1C(C)C [BIO1267, Butyl-carbamic acid (1R,2S,5R)-2-isopropyl-5-methyl-cyclohexyl ester]
Second: CCCCCCNC(=O)O[C@@H]1C[C@H](C)CC[C@H]1C(C)C [BIO1271, Hexyl-carbamic acid (1R,2S,5R)-2-isopropyl-5-methyl-cyclohexyl ester]
The IC50 of the first is 26-fold higher: 498 µM for the first, 18.9 µM for the second. The second is the more potent here.

First: CC(C)OCCCNC(=O)O[C@@H]1C[C@H](C)CC[C@H]1C(C)C [BIO1268, (3-Isopropoxy-propyl)-carbamic acid (1R,2S,5R)-2-isopropyl-5-methyl-cyclohexyl ester]
Second: COCCCNC(=O)O[C@H]1C[C@H](C)CC[C@H]1C(C)C [BIO1460, (3-Methoxy-propyl)-carbamic acid (1S,2S,5R)-2-isopropyl-5-methyl-cyclohexyl ester]
The IC50 of the first is 2.7-fold higher: 19.6 µM for the first, 7.3 µM for the second. The second is the more potent here.

`COCCNC(=O)O[C@@H]1C[C@H](C)CC[C@H]1C(C)C` [BIO1336, (2-Methoxy-ethyl)-carbamic acid (1R,2S,5R)-2-isopropyl-5-methyl-cyclohexyl ester] and `CC(C)[C@@H]1CC[C@@H](C)C[C@H]1OC(=O)NCCCCCCO` [BIO1662, (6-Hydroxy-hexyl)-carbamic acid (1R,2S,5R)-2-isopropyl-5-methyl-cyclohexyl ester] are within 1.5-fold of each other in IC50: 35.3 µM for the first, 50.7 µM for the second.

`CCN(CC)C(=O)O[C@@H]1C[C@H](C)CC[C@H]1C(C)C` [BIO1553, Diethyl-carbamic acid (1R,2S,5R)-2-isopropyl-5-methyl-cyclohexyl ester] and `CC(C)[C@@H]1CC[C@@H](C)C[C@H]1OC(=O)NCC1CCCO1` (stereo partly drawn) [BIO1702, (Tetrahydro-furan-2-ylmethyl)-carbamic acid (1R,2S,5R)-2-isopropyl-5-methyl-cyclohexyl ester] are within 1.5-fold of each other in IC50: 10.7 µM for the first, 14.8 µM for the second.

`CC(C)[C@@H]1CC[C@@H](C)C[C@H]1OC(=O)Nc1ccccc1` [BIO1580, Phenyl-carbamic acid (1R,2S,5R)-2-isopropyl-5-methyl-cyclohexyl ester] and `CC(C)[C@@H]1CC[C@@H](C)C[C@H]1OC(=O)NCc1ccccc1` [BIO1695, Benzyl-carbamic acid (1R,2S,5R)-2-isopropyl-5-methyl-cyclohexyl ester] are within 1.5-fold of each other in IC50: 6.9 µM for the first, 7.7 µM for the second.

Going from `CCOc1ccccc1NC(=O)O[C@@H]1C[C@H](C)CC[C@H]1C(C)C` [BIO1632, (2-Ethoxy-phenyl)-carbamic acid (1R,2S,5R)-2-isopropyl-5-methyl-cyclohexyl ester] to `CC(=O)c1ccccc1NC(=O)O[C@@H]1C[C@H](C)CC[C@H]1C(C)C` [BIO1633, (2-Acetyl-phenyl)-carbamic acid (1R,2S,5R)-2-isopropyl-5-methyl-cyclohexyl ester], the IC50 rises from 3.2 µM to 25.4 µM (7.9-fold). The first is the more potent here.

`OC[C@H]1O[C@@H](Oc2ccc(O)cc2)[C@H](O)[C@@H](O)[C@@H]1O` [beta-Arbutin, reference compound] showed an IC50 of 67 µM.

These molecules were tested on Pigmented pig skin (assay: Depigmenting effect on ex vivo skin (melanin granules, Fontana-Masson staining, image analysis)). Conditions: 1 wt.% in O/W emulsion applied topically, 6 days, vs. emulsion without test compound.
Assay type: cell-based
Experimental: Pigmented pig skin was excised from animals (slaughtered for meat production; the pig skin model included the subcutis fat layer as described in EP 1 939 27), cut into 4×4×3 mm pieces (length×width×height) and placed in culture at the air-liquid interface on a sterilized cotton pad soaked with 5 ml of customized DMEM (Dulbecco's Modified Eagle Medium). Assays were started 24 h after sample acclimatization at 37° C., 5% CO2. O/W emulsions (as described in more detail below) without (=control) and with the test compounds, respectively, were applied topically and incubated for 6 days. Histological sections were prepared and melanin granules stained by Fontana-Masson technique. The granules were quantified by image analysis.
The O/W emulsions used had the following composition:
Phases A and B are heated to 70° C. separately. Pemulen TR1 as well as Ultrez-21 are dispersed in phase B when heated to 70° C. Phase B/C is added to phase A by mixing with an Ultra Turrax, followed by emulsifying. Phase D is slowly added to phase A/B/C using a paddle mixer and a pH 5.5-6 is adjusted. The formulation is cooled down while mixing with a paddle mixer. Phase E is prepared by dissolving one or more compounds of formula (I) in Hydrolite-5. Subsequently, phase E is added to the mixture of phase A-D.

First: CCNC(=O)O[C@@H]1C[C@H](C)CC[C@H]1C(C)C [BIO1151, Ethyl-carbamic acid (1R,2S,5R)-2-isopropyl-5-methyl-cyclohexyl ester]
Second: COCCCNC(=O)O[C@@H]1C[C@H](C)CC[C@H]1C(C)C [BIO1155, (3-Methoxy-propyl)-carbamic acid (1R,2S,5R)-2-isopropyl-5-methyl-cyclohexyl ester]
The “Melanin score vs. Control” value of the first is higher: −44% for the first, −46% for the second.
